Measured values as given in BindingDB's records for doi:10.1002/cbic.201100121 (Mcmaster University, 2011).
pKi: −log10 of the molar value.

Target: T1, Homoserine kinase (Escherichia coli (strain K12), UniProt P00547)
T1 sequence (P00547 whole entry): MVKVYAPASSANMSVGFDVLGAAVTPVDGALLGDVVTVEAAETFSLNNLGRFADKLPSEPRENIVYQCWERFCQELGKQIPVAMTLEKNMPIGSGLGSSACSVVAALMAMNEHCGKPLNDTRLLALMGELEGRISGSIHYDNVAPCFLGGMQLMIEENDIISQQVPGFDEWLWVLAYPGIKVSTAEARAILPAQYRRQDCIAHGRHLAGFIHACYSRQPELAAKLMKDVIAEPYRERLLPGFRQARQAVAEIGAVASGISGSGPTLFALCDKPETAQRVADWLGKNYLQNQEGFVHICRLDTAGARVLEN
Assay: Enzyme Inhibition Assay
Conditions: pH 7.5; 37 °C
From the text: The phosphorylation of L-Hse was monitored by coupling the formation of ADP with pyruvate kinase and lactate dehydrogenase (PK/LDH). The resulting oxidation of NADH was monitored at 340 nm by using a SpectraMax plate reader in a 96-well format.

| Structure (SMILES) | pKi |
| --- | --- |
| CC(=O)C(C#N)C(=O)Nc1cc(Br)ccc1Br (stereo unspecified) | 4.92 |
| O=C1C(O)c2cc(O)c(O)cc2OC1c1ccc(O)c(O)c1 (stereo unspecified) | 4.57 |
| C=CC(=O)c1ccc2ccccc2c1 [Thr1 inhibitor, 1] | 4.49 |
| O=C1OC2C=CCC=C2C(=O)C1Cc1c(O)c2ccccc2oc1=O (stereo unspecified) [Thr1 inhibitor, 4] | 6.34 |
| CC(C)Cc1nc2sc3c(c2c(=O)o1)CCCCC3 [Thr1 inhibitor, 5] | 4.45 |
| CC1NN(c2ccccc2)c2nc(C(F)(F)F)cc(O)c21 (stereo unspecified) [Thr1 inhibitor, 6] | 5.07 |
